Results reported in US20100184807A1, “Methods to inhibit tumor cell growth by using proton pump inhibitors” (Bio-Quant, Inc., priority 2008, published 2010).

How the values were obtained:
Experiment in all cases: MTT tumor cell growth assay
Type in all cases: cell-based
M14 (melanoma) = details: M14 cells, lansoprazole 1-100 μM, 48 hours
H226 (lung cancer) = details: H226 cells, lansoprazole 1-100 μM, 48 hours
ES-2 (ovarian cancer) = details: ES-2 cells, lansoprazole 1-100 μM, 48 hours
HCT-15 (colon cancer) = details: HCT-15 cells, lansoprazole 1-100 μM, 48 hours
OVCAR4 (ovarian cancer) = details: OVCAR4 cells, lansoprazole 1-100 μM, 48 hours
JMI = JMI cells, lansoprazole 1-100 μM, 48 hours
GDM-1 (leukemia) = test system: GDM-1 (leukemia)
Description: (§1) In one study, adherent cells were plated approximately 16-24 hours before the day of the experiment in 180 μl growth media. On the day of the experiment, the plated adherent cells were analyzed and counted and suspension cells were plated in 180 μl growth media. 10× lansoprazole compounds and vehicle was prepared. The 10× lansoprazole compounds were prepared by diluting lansoprazole to final concentrations of 100 μM, 30 μM, 10 μM, 3 μM, and 1 μM. A vehicle was prepared by preparing a solution of PBS, equivalent to the volume used for 10 μM lansoprazole wherein the 1× solution constitutes ˜0.06% PBS. 10 μl of the various 10× lansoprazole solutions and the vehicle were added to the cells. The cells were incubated at 37° C., 5% CO2 for 48 hours. The media was then aspirated. The cell suspension was then spun at 1500 RPM for 10 minutes. The media was slowly removed. 200 μl of MTT solution was added to each well with a concentration of 0.863 mg/ml MTT in the growth media. The cells were incubated at 37° C., 5% CO2 for 4 hours and the medium is then aspirated. The plate containing the cell suspension was then spun at 1500 RPM for 10 minutes. The media was slowly removed using a multichannel pipettor. 100 μl of DMSO was then added to each well. The cells were incubated at 37° C., 5% CO2 for 5 minutes and the absorbance was obtained at 560 nm using a Dynex Opsys MR plate reader. The cells used for this procedure were the following cell lines: IGROV1 (ovarian cancer); OVCAR 8 (ovarian cancer); ES-2 (ovarian cancer); CAOV3 (ovarian cancer); OVCAR5 (ovarian cancer); SUDHL4 (lymphoma); RPMI8226 (myeloma); RPMI6666 (Hodgkin's lymphoma); NC37 (lymphoma); GDM-1 (leukemia); MC/CAR (prostate cancer); DU-145 (prostate cancer), J45-01 (leukemia), MOLT3 (leukemia), HUT78, J-gamma-1 (leukemia), MCF7 […], COL0205 (colon cancer), HL60 CLONE 15 (leukemia), T47D (breast cancer), P116 (intestinal cancer), KU812 (leukemia), SW620 (colon cancer), MK92-M1 (lymphoma), MV-4-11 (leukemia), HS578T (breast cancer), HT29 (colon cancer), HCT 116 (colon cancer), CAKI-1 (kidney cancer), A549 (lung cancer), H460 (lung cancer), A3 (colon cancer), MDA-MB231 […], MALME 3M (melanoma), RXF393 (kidney cancer), RS4.11 (leukemia), PC3 (prostate cancer), OVCAR3 (ovarian cancer), MDA-MB435 (melanoma), HUT102 (lymphoma), HL60 (leukemia), CCRF-CEM (leukemia), HUT78 (lymphoma), 786-O (kidney cancer), ACHN (kidney cancer), A498 (kidney cancer), H226 (lung cancer), H522 (lung cancer), HOP92 (lung cancer), SNB 19 (brain cancer), OVCAR4 (ovarian cancer), H9 (lymphoma), UO-31 (kidney cancer), HH (lymphoma), DAUDI (leukemia), LOXIMVI (melanoma), NAMALWA (lymphoma), EKVX (lung cancer), DOHH2 (lymphoma), SNB75 (brain cancer), SKMEL28 (melanoma), SKMEL5 (melanoma), SKMEL2 (melanoma), M14 (melanoma), UACC 257 (melanoma), H332M (lung cancer), KM12 (colon cancer), HCC2998 (colon cancer), G401 (kidney cancer), RS1184 (lymphoma), MC116 (leukemia), MOLT4 (leukemia), JM1 (liver cancer), HOP-62 (lung cancer), HCT-15 (colon cancer), SF-539 (brain cancer), SF295 (brain cancer), ST486 (lymphoma), U251 (brain cancer), and UACC-62 (melanoma).
(§2) Experiments, as described in Example I were conducted with lansoprazole, omeprazole and SCH 28080 at concentrations of 1 μM, 10 μM, and 100 μM. FIGS. 3A-3K show the experimental results when tumor cells from the following cell lines were treated with lansoprazole, omeprazole, and SCH 28080: IGROV1 (FIG. 3A), OVCAR8 (FIG. 3B), ES-2 (FIG. 3C), CAOV3 (FIG. 3D), OVCAR5 (FIG. 3E), SUDHL4 (FIG. 3F), RPMI8226 (FIG. 3G), RPMI6666 (FIG. 3H), NC37 (FIG. 3I), GDM-1 (FIG. 3J), and MC/CAR (FIG. 3K).

SUDHL4 (lymphoma) = test system: SUDHL4 (lymphoma)
Description: as §1, §2

[1] = test system: RPMI6666 (Hodgkin's lymphoma)
Description: as §1, §2

OVCAR5 (ovarian cancer) = test system: OVCAR5 (ovarian cancer)
Description: as §1, §2

MC/CAR (prostate cancer) = test system: MC/CAR (prostate cancer)
Description: as §1, §2

RPMI8226 (myeloma) = test system: RPMI8226 (myeloma)
Description: as §1, §2

NC37 (lymphoma) = test system: NC37 (lymphoma)
Description: as §1, §2

Cc1c(OCC(F)(F)F)ccnc1C[S+]([O-])c1nc2ccccc2[nH]1 (centres unmarked) [lansoprazole] was tested, and the “tumor cell growth reduction” value (M14 (melanoma)) was “significant tumor cell growth reduction”, the “tumor cell growth reduction” value (H226 (lung cancer)) was “significant tumor cell growth reduction” and the “tumor cell growth reduction” value (ES-2 (ovarian cancer)) was “significant tumor cell growth reduction”. The “tumor cell growth reduction” value (HCT-15 (colon cancer)) was “significant tumor cell growth reduction”, the “tumor cell growth reduction” value (OVCAR4 (ovarian cancer)) was “significant tumor cell growth reduction” and the “tumor cell growth reduction” value (JMI) was “significant tumor cell growth reduction”. For the same compound, the “reducing tumor cell growth” value (GDM-1 (leukemia); GDM-1 (FIG. 3J), 10 μM) was “effective in reducing tumor cell growth”, the “tumor cell growth reduction” value (GDM-1 (leukemia); GDM-1 cells, lansoprazole 1-100 μM, 48 hours, MTT) was “significant tumor cell growth reduction” and the “reducing tumor cell growth” value (SUDHL4 (lymphoma); SUDHL4 (FIG. 3F), 100 μM) was “effective in reducing tumor cell growth”. For the same compound, the “tumor cell growth reduction” value (SUDHL4 (lymphoma); SUDHL4 cells, lansoprazole 1-100 μM, 48 hours, MTT) was “significant tumor cell growth reduction”, the “reducing tumor cell growth” value ([1]; RPMI6666 (FIG. 3H), 100 μM) was “effective in reducing tumor cell growth” and the “tumor cell growth reduction” value ([1]; RPMI6666 cells, lansoprazole 1-100 μM, 48 hours, MTT) was “significant tumor cell growth reduction”. The “reducing tumor cell growth” value (OVCAR5 (ovarian cancer); OVCAR5 (FIG. 3E), 100 μM) was “effective in reducing tumor cell growth”, the “tumor cell growth reduction” value (OVCAR5 (ovarian cancer); OVCAR5 cells, lansoprazole 1-100 μM, 48 hours, MTT) was “significant tumor cell growth reduction” and the “reducing tumor cell growth” value (MC/CAR (prostate cancer); MC/CAR (FIG. 3K), 100 μM) was “effective in reducing tumor cell growth”. For the same compound, the “tumor cell growth reduction” value (MC/CAR (prostate cancer); MC/CAR cells, lansoprazole 1-100 μM, 48 hours, MTT) was “significant tumor cell growth reduction”, the “reducing tumor cell growth” value (RPMI8226 (myeloma); RPMI8226 (FIG. 3G), 100 μM) was “effective in reducing tumor cell growth” and the “tumor cell growth reduction” value (RPMI8226 (myeloma); RPMI8226 cells, lansoprazole 1-100 μM, 48 hours, MTT) was “significant tumor cell growth reduction”. For the same compound, the “reducing tumor cell growth” value (NC37 (lymphoma); NC37 (FIG. 3I), 100 μM) was “effective in reducing tumor cell growth” and the “tumor cell growth reduction” value (NC37 (lymphoma); NC37 cells, lansoprazole 1-100 μM, 48 hours, MTT) was “significant tumor cell growth reduction”.
